Laboratory results from patent US9409939B2, “Quantification method for remaining liver function and novel liver receptor imaging agent” (INSTITUTE OF NUCLEAR ENERGY RESEARCH ATOMIC ENERGY COUNCIL, …, priority 2009, dated 2016).
pIC50: −log10 of the molar value.

Assays:
[1] = test system: normal rat cells (Clone 9); test: MTT cell toxicity test, Clone 9; type: cell-based; settings: Clone 9, concentration 10^3 times of 0.01 μM, 24 hr, 48 hr
Method: (§1) MTT, i.e. 3-(4,5-cimethyl-thiazol-2-yl)-2,5-diphenyl tetrazolium bromide, can be metabolized by succinate dehydrogenase of cell mitochondria into blue MTT formazan, and thus is widely used to detect cell viability. The experimental method includes: adding 0, 0.001 μM, 0.01 μM, 0.1 μM, 1 μM, and 10 μM hexa-lactoside into 1×10^6 normal rat cells (Clone 9) and normal mouse cells (FL83B), respectively; after culturing for 24 hr, 48 hr, adding MTT; and 4 hr later, dissolving the cells with DMSO. The blue MTT formazan is soluble in the solution. The absorption of the solution at 570 nm is detected. With the absorption at 570 nm without adding hexa-lactoside as 100% of cell viability, the experimental groups with hexa-lactoside added are compared with the normal group without adding hexa-lactoside, to get the cell viability of the experimental groups. FIG. 10 is a comparison of cell viability of hexa-lactoside in normal rat cell (Clone 9), and FIG. 11 is a comparison of cell viability of hexa-lactoside in normal mouse cell (FL83B), in which the concentration used presently is 0.01 μM.

[2] = test system: normal mouse cells (FL83B); test: MTT cell toxicity test, FL83B; type: cell-based; settings: concentration 10^3 times of 0.01 μM, 24 hr, 48 hr
Method: as §1

[3] = molecular target: T1, ASGPR (Mus musculus, UniProt P24721+P34927); test: Competition with Eu-ASOR for binding to murine hepatocyte (time-resolved fluorescence)
T1 construct: host or cells: murine hepatocytes (purchased, plated in 24-well plates)
T1 sequence (P34927 1-284): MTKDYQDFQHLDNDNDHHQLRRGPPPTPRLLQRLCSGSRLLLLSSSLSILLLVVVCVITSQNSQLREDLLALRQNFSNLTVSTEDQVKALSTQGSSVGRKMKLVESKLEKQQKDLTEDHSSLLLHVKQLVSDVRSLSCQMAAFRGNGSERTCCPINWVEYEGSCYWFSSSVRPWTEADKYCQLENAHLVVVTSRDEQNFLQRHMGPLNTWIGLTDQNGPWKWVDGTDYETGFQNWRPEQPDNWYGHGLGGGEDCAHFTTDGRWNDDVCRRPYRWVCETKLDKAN
T1 sequence (P24721 1-301): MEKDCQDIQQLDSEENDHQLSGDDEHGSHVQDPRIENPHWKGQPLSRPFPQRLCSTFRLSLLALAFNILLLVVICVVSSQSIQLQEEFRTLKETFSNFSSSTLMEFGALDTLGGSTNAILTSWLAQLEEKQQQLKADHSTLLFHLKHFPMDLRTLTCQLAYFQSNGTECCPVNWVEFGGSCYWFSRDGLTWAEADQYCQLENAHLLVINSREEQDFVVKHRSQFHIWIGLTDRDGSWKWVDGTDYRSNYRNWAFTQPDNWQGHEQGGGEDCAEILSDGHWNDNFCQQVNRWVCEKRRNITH
Method: The murine hepatocyte (from Lonza Biotechnology Company, Maryland) is plated in a 24-well plate in advance, and the reaction occurs in each well, into which (i) Eu-ASOR 10 nM (ii) hepatocyte basic medium with 5 mM calcium chloride, and (iii) five different concentrations of saccharide chain peptide of 1 uM-0.8 nM are added. After culturing with shaking for 1 hr, the substance that has not been bound to hepatocyte is removed by washing with the hepatocyte basic medium containing calcium chloride.
Time-resolved fluorescence spectroscopy is preformed, that is, an enhancement solution (15 uM β-naphthoyl trifluoroacetone, 50 uM tri-n-octyl-phosphine oxide, 0.1% triton X-100 in 0.1M acetic acid, titrated with potassium hydrogen phthalate to pH 3.2) is added. The enhancement solution reacts with Eu^3+ to form a Eu chelate, which can emit a light of 615 nm when being excited at 340 nm. With the logarithm of the concentration of saccharide chain peptide as X axis, the emitted fluorescence value as Y axis, the fluorescence value without adding glycopeptide being set as 100%, the IC50 of each saccharide chain peptide can be calculated accordingly.

NCCCCCC(=O)N[C@@H](CC(=O)NCCCC[C@@H](C(=O)NCCCCCCOC1O[C@H](CO)[C@@H](O[C@@H]2O[C@H](CO)[C@H](O)[C@H](O)[C@H]2O)[C@H](O)[C@H]1O)N(CC(=O)NCCCCCCOC1O[C@H](CO)[C@@H](O[C@@H]2O[C@H](CO)[C@H](O)[C@H](O)[C@H]2O)[C@H](O)[C@H]1O)CC(=O)NCCCCCCOC1O[C@H](CO)[C@@H](O[C@@H]2O[C@H](CO)[C@H](O)[C@H](O)[C@H]2O)[C@H](O)[C@H]1O)C(=O)NCCCC[C@@H](C(=O)NCCCCCCOC1O[C@H](CO)[C@@H](O[C@@H]2O[C@H](CO)[C@H](O)[C@H](O)[C@H]2O)[C@H](O)[C@H]1O)N(CC(=O)NCCCCCCOC1O[C@H](CO)[C@@H](O[C@@H]2O[C@H](CO)[C@H](O)[C@H](O)[C@H]2O)[C@H](O)[C@H]1O)CC(=O)NCCCCCCOC1O[C@H](CO)[C@@H](O[C@@H]2O[C@H](CO)[C@H](O)[C@H](O)[C@H]2O)[C@H](O)[C@H]1O (stereo partly shown) [AHA-Asp[DCM-Lys(ahLac)3]2, AHA-Asp[DCM-Lys(ah-Lac)3]2]
cell viability (MTT) [1]: 100% | cell viability (MTT) [2]: 100%

CC(=O)N[C@H]1[C@H](OCCCCCCNC(=O)CNC(=O)CN(CC(=O)NCC(=O)NCCCCCCO[C@@H]2O[C@H](CO)[C@H](O)[C@H](O)[C@H]2NC(C)=O)[C@@H](CCCCN)C(=O)NCC(=O)NCCCCCCO[C@@H]2O[C@H](CO)[C@H](O)[C@H](O)[C@H]2NC(C)=O)O[C@H](CO)[C@H](O)[C@@H]1O [DCM-Lys(GahGalNAc)3, DCM-Lys(Gah-GalNAc)3]
binding to ASGPR relative to YEE or YDD ([3]; compared with YEE or YDD): 10 times

CC(=O)N[C@H]1[C@H](OCCCCCCNC(=O)CNC(=O)C[C@H](NC(=O)[C@H](CC(=O)NCC(=O)NCCCCCCO[C@@H]2O[C@H](CO)[C@H](O)[C@H](O)[C@H]2NC(C)=O)NC(=O)[C@@H](N)Cc2ccc(O)cc2)C(=O)NCC(=O)NCCCCCCO[C@@H]2O[C@H](CO)[C@H](O)[C@H](O)[C@H]2NC(C)=O)O[C@H](CO)[C@H](O)[C@@H]1O [YDD(GahGalNAc)3, reference compound]
pIC50 [3]: 8.00
